Measurements as given in patent US10766927B2, “Peptides that stimulate subcutaneous adipogenesis” (THE REGENTS OF THE UNIVERSITY OF CALIFORNIA, priority 2012, dated 2020).

Key:
[1] = tested on: Pre-adipocyte stem cells, bone marrow mesenchymal stem cells and fibroblasts; assay: Assay 2 to measure adipogenesis (dexamethasone/insulin/indomethacin induction, Oil Red O or BODIPY staining); assay type: cell-based; conditions: for Fold adipogenic induction vs. negative control / Specific activity (activity/1000 daltons): Assay 2; for adipogenic effect compared to KSEVSK 6-mer: assay 2 (FIG. 12)
Protocol: The dexamethasone, insulin, and Oil Red 0 solutions were the same as described above for assay 1. Indomethacin Solution contained 10 mM indomethacin in methanol. The BODIPY 493/503 dye was used at a concentration of 4 μM.
Adipogenesis Maintenance Media was prepared as described above.
Adipogenesis Induction Media: To prepare 501 mL of Adipogenesis Induction Media, 50 μL of the 10 mM stock solution of dexamethasone, 500 μL of the 10 mg/ml stock solution of insulin, 5 ml of a 10 mM stock solution of indomethacin, and 5 mL of a 100× stock solution of penicillin and streptomycin were added to 490 mL of mesenchymal stem cell expansion media.
(§1) Pre-adipocyte stem cells, bone marrow mesenchymal stem cells and fibroblasts such as dermal reticular and papillary fibroblasts were propagated using standard tissue culture methods. Cells were trypsinized to remove cells from the substratum, the trypsin was neutralized, and cells were counted using a hemocytometer. Cells were resuspended at 60,000 cells/ml in low glucose DMEM containing 10% calf serum. 1 mL of cell suspension per well was plated in a 24-well plate, with several wells left empty for blank well staining.
(§2) Cells were incubated overnight and had reached confluency at this point. Approximately 1.8 ml of media was removed from each well and replaced with 2 ml Adipogenesis Induction Media. For negative control wells, expansion medium only was used at this step and for subsequent media changes. For all media changes, media was replaced as gently as possible to avoid disturbing the monolayer.
Cells were incubated for 3 days at 37° C., 5% CO2, media was replaced with fresh Adipogenesis Induction Media, and cells were incubated for an additional three days, at which point adipogenesis could be observed in about 5-10% of cells. Media was removed and replaced with 2 ml of maintenance medium containing either RHAMM antagonist peptides (experimental group) or insulin (concentration as in the induction medium used as positive control). Cells were incubated for 3 days at 37° C., 5% CO2.
Media was removed and BODIPY or Oil Red O staining was performed as described above for assay 1.

nude guinea pigs = assay: Nude guinea pig model, injection in upper back and ear fat pad, H and E staining; assay type: in vivo; conditions: upper back and ear fat pad after injection; control collagen gel vehicle only
Protocol: Peptide B (SEQ ID NO: 2) was also tested for its effect in nude guinea pigs since their skin structure resembles human facial skin. In particular, the skin of this animal model is more similar to human skin than is rat skin, in that it is hairless and the keratinocyte layer is thicker than in the rat model. […] Thus, peptide B was effective in promoting adipogenesis in this nude guinea pig model.

Rat skin = assay: Rat dermal skin model of adipogenesis (injection into the dermis); assay type: in vivo; conditions: for adipogenic potential, In vivo Rat skin: ranked on a scale of 0-5 with 5 the highest possible score, injected into the dermis of aged rats
Protocol: (§3) Examples of the adipogenic effects of RHAMM antagonists (peptide B (SEQ ID NO: 2), peptide P15-1 (SEQ ID NO. 1), and the antibody to peptide B) are summarized in Table 1. Peptide P15-1, peptide B, and a RHAMM antibody were assayed for their effects on pre-adipocyte stem cells in culture and when injected into the dermis of aged rats. Reagents were ranked on a scale of 0-5 with 5 representing the highest possible score and a completely filled in Harvey ball. “2D” refers to two-dimensional tissue culture.
In FIGS. 5A and 5B, data are shown as a ratio of the area (“surface area”) of fat pads expressed as a ratio of experimental/control values.
The 6-mer (KSEVSK; SEQ ID NO: 3) was tested for adipogenic effect in rat skin in vivo. The results of this testing are shown in the photographs in FIG. 10.

[2] = tested on: bone marrow mesenchymal stem cells; assay: Adipogenesis in culture, assay 1 or 2 not specified; assay type: cell-based; conditions: for activity compared to KSEVSK hexamer: FIG. 13, doses 1, 5, 25 μg, absorbance at 520 nm; for adipogenic activity (in words): truncation fragments, FIGS. 7-9, 13
Source text: The following assays were used to assess adipogenic activity of the peptides in the experiments described below in Example 2.
(§4) Pre-adipocyte stem cells including bone marrow mesenchymal stem cells and fibroblasts including reticular and papillary dermal fibroblasts were propagated using standard tissue culture methods. Cells were trypsinized to remove the cells from the substratum. The trypsin was neutralized and cells were counted using a hemocytometer. Cells were resuspended at 30,000 cells/mL in expansion media. […] of cell suspension was plated per well of 24-well plate, with several wells left empty for blank well staining.
as §1

human Pre-adipocytes = assay: Adipogenic potential in 2D human pre-adipocyte culture; assay type: cell-based; conditions: ranked on a scale of 0-5 with 5 the highest possible score; two-dimensional tissue culture
Protocol: as §3

[3] = tested on: Pre-adipocytes (rat mesenchymal stem cells); assay: Adipogenic potential in 2D rat pre-adipocyte culture; assay type: cell-based; conditions: ranked on a scale of 0-5 with 5 the highest possible score; two-dimensional tissue culture
Protocol: as §3

[4] = tested on: Pre-adipocyte stem cells including bone marrow mesenchymal stem cells and fibroblasts; assay: Assay 1 to measure adipogenesis (IBMX/dexamethasone initiation, Oil Red O or BODIPY staining); assay type: cell-based, rat; conditions: for Fold adipogenic induction vs. negative control / Specific activity (activity/1000 daltons): Assay 1; for adipogenic effect compared to KSEVSK 6-mer: assay 1 (FIG. 11)
Protocol: Reagents: (1) 3-isobutyl-1-methylxanthine (IBMX) solution: 0.5M in DMSO; (2) Insulin solution: 10 mg/mL recombinant human insulin; (3) Dexamethasone solution in 10 mM in ethanol; (4) Oil Red 0 (0.36% in 60% isopropanol) or BODIPY dye (BODIPY 493/503 (4,4-difluoro-1,3,5,7-tetramethyl-4-bora-3a,4a-diaza-s-indacene-8-propionic acid, succinimidyl ester) from Invitrogen at 4-10 μM).
Adipogenesis Initiation Media: mesenchymal stem cell expansion media/0.5 mM IBMX/1 μM dexamethasone. Mesenchymal stem cell expansion media is commercially available from Millipore. The IBMX Solution was diluted 1:1000 and the Dexamethasone Solution was diluted 1:10,000 in expansion media containing antibiotics and antimycotics. The prepared media was stored at 4° C.
Adipogenesis Progression Media for positive control: mesenchymal stem cell expansion media/10 μg/mL insulin. The Insulin Solution was diluted 1:1000 in the expansion media and stored at 4° C.
Experimental Adipogenesis Progression Media: mesenchymal stem cell expansion media/1-100 μg/mL RHAMM antagonist peptides.
Adipogenesis Maintenance Media: mesenchymal stem cell expansion media containing antibiotics and antimycotics.
Negative Control Media: DMEM/10% normal calf serum.
as §4
as §2, with “for 1-2 days until they” for “overnight and had”, “confluency.” for “confluency at this point.”, “mL” for “ml”, “Initiation” for “Induction”, “media” for “medium”
Cells were incubated for 48 hours at 37° C., 5% CO2. 2 mL media was removed from each well, and replaced with 2 mL either positive control or experimental Adipogenesis Progression Media per well. Cells were again incubated for 48 hours at 37° C., 5% CO2. 2 mL of media was removed from each well and replaced with 2 mL Adipogenesis Maintenance Media per well. In addition, media was added to the empty wells reserved for blank well staining Cells were incubated for at least 48 hours at 37° C., 5% CO2. Media was replaced every 48-72 hours. Accumulation of intracellular lipid droplets continued for at least 5 days.
For quantification of Oil Red 0 staining, media was removed and cells were washed twice with PBS, using care to gently add the PBS. 0.5 mL Oil Red 0 solution was added per well of 24-well plate, including to the wells lacking cells, but containing media. Cells were incubated for 15 minutes at room temperature. The staining solution was then removed and wells were washed three times with 1 mL of phosphate buffered saline (PBS). In some experiments, following removal of the last wash, stained plates were scanned or photographed.
Adipogenesis was quantified using a spectrophotometer or fluorometer. 0.25 mL Dye Extraction Solution (isopropyl alcohol) was added per well, and the plate was set on an orbital shaker or platform rocker for 15-30 minutes. Extracted dye was transferred into a cuvette and absorbance was read in a spectrophotometer at visible range for oil red 0 or transferred to a 96-well plate and quantified in a plate reader.
For quantification of BODIPY dye uptake, media was removed and cells were washed twice with PBS, using care to gently add the PBS. Cells were then fixed in 3% paraformaldehyde, washed in PBS then incubated for 1 hour in the dark with the BODIPY solution, prepared in PBS. […]

mesenchymal stem cell = assay: Adipogenesis using a commercially available mesenchymal stem cell kit; assay type: cell-based

## KLKDENSQLKSEVSK [peptide B]
[1]
  Fold adipogenic induction vs. negative control: 3.1
  Specific activity (activity/1000 daltons): 1.7 activity/1000 daltons
Nude guinea pigs
  subcutaneous fat deposition: increase in subcutaneous fat deposition
Rat skin; 25-50 μg/injection site
  fat accumulation in rat dermal skin model: induced significant fat accumulation
Rat skin; FIGS. 5A and 5B
  fat pad surface area, experimental/control: animal group with best effect: most effective in old females
Rat skin
  adipogenic potential, In vivo Rat skin: 5
[2]; bone marrow mesenchymal stem cells, depending upon the screening assay used (FIGS. 3B, 3C, 4)
  amount at which maximum adipogenic effect was obtained: 1 to 5 µg
Human Pre-adipocytes
  adipogenic potential, 2D human Pre-adipocytes: 5
[3]
  adipogenic potential, 2D rat Pre-adipocytes (rat mesenchymal stem cells): 5

## SEVSK
[2]
  activity compared to KSEVSK hexamer: much less active
  adipogenic activity (in words): low level of adipogenic activity

## SQLKSEVSK [9mer]
[1]
  Fold adipogenic induction vs. negative control: 3.0
  Specific activity (activity/1000 daltons): 2.6 activity/1000 daltons
[2]
  adipogenic activity (in words): found to be adipogenic
[4]
  Fold adipogenic induction vs. negative control: 2.4
  Specific activity (activity/1000 daltons): 2.1 activity/1000 daltons

## LKSEVSK [7mer]
[1]
  Fold adipogenic induction vs. negative control: 3.0
  Specific activity (activity/1000 daltons): 3.4 activity/1000 daltons
[2]
  adipogenic activity (in words): also found to be adipogenic
[4]
  Fold adipogenic induction vs. negative control: 2
  Specific activity (activity/1000 daltons): 2.3 activity/1000 daltons

## KSEVSA
[1]
  adipogenic effect compared to KSEVSK 6-mer: reduced adipogenic effects
[4]
  adipogenic effect compared to KSEVSK 6-mer: reduced adipogenic effects

## KLKDENS
[2]
  adipogenic activity (in words): Only the SQLKSEVSK (SEQ ID NO: 44) fragment was found to be adipogenic

## KSEVSK [6mer]
[1]
  Fold adipogenic induction vs. negative control: 4.2
  Specific activity (activity/1000 daltons): 5.6 activity/1000 daltons
Rat skin; FIG. 10
  adipogenic effect in rat skin in vivo (fat pads): able to induce large fat pads, possibly larger than peptide B
[2]
  adipogenic activity (in words): also found to be adipogenic
[4]
  Fold adipogenic induction vs. negative control: 2.8
  Specific activity (activity/1000 daltons): 3.7 activity/1000 daltons

## KSEVS
[2]
  activity compared to KSEVSK hexamer: much less active
  adipogenic activity (in words): low level of adipogenic activity

## STMMSRSHKTRSHHV [peptide P15-1]
Rat skin
  adipogenic potential, In vivo Rat skin: 2
Human Pre-adipocytes
  adipogenic potential, 2D human Pre-adipocytes: 2
[3]
  adipogenic potential, 2D rat Pre-adipocytes (rat mesenchymal stem cells): 2

## ASEVSK
[1]
  adipogenic effect compared to KSEVSK 6-mer: reduced adipogenic effects
[4]
  adipogenic effect compared to KSEVSK 6-mer: reduced adipogenic effects

## STMMSRSHK
[2]
  adipogenic activity (in words): has adipogenic activity

B1: RHAMM carboxy-terminal sequence: RHAMM carboxy-terminal sequence aa681-794 produced as a recombinant protein (protein)
chain: LDAFEAEKQALLNEHGATQEQLNKIRDSYAQLLGHQNLKQKIKHVVKLKDENSQLKSEVSKLRSQLVKRKQNELRLQGELDKALGIRHFDPSKAFCHASKENFTPLKEGNPNCC
Mesenchymal stem cell
  promotion of adipogenesis: promoted adipogenesis
